Molecules are shown by their SMILES.

The target in one assay is T1, human DYRK1A (Homo sapiens, UniProt Q13627). Briefly: Human DYRK1A kinase functional assay (CEREP, LANCE detection). The assay is classed as biochemical. Set-up: CEREP (France), contract assay provider. The method, then: (II) Human DYRK1A Kinase Functional Assay and IC50 Measurements.
Compound profiling in a human DYRK1A kinase functional assay was performed by CEREP (France). The effects of compounds on the activity of human DYRK1A were evaluated and quantified by measuring the phosphorylation of the substrate Ulight-CFFKNIVTPRTPPPSQGK-amide (MBP) using a human recombinant enzyme and the LANCE® detection method, as described by Himpel et al, J. Biol. Chem., 275: 2431 (2000). The inhibitory activity of the compounds was expressed as a percent inhibition of the control kinase activity. Activities of the compounds at 50% or higher inhibition were selected for IC50 determination. Compounds were tested at 6 concentrations in duplicate for IC50 determination. The standard inhibitory reference compound was staurosporine, which was tested in each experiment at 8 concentrations to obtain an inhibition curve from which its IC50 value was calculated.
In certain embodiments, compounds have a low IC50 value in the DYRK1A kinase functional assay. […] The human DYRK1A kinase functional assay has been used to test the compounds of the Examples disclosed.
(Time-resolved FRET reads energy transfer from a long-lived donor to a nearby acceptor.)
Broadly, the IC50 is the concentration needed to halve the response being measured. A higher IC50 goes with weaker potency in that assay. Take `Cc1nc2c(c3c1[nH]c1ccc(Cl)cc13)C(=O)CC(C)(C)C2` [Example 13, 10-chloro-3,3,6-trimethyl-2,3,4,7-tetrahydroindolo[2,3-c]quinolin-1-one]: the IC50 is under 5 µM. The same measure, in the same setting: under `Cc1nc2c(c3c1[nH]c1ccccc13)C(=O)CC(C)C2` (stereo not shown) [Example 8, 3,6-dimethyl-2,3,4,7-tetrahydroindolo[2,3-c]quinolin-1-one] stands under 5 µM; under `CCc1nc2c(c3c1[nH]c1cccc(F)c13)C(=O)CC(C)(C)C2` [Example 15, 11-fluoro-6-ethyl-3,3,-dimethyl-2,3,4,7-tetrahydroindolo[2,3-c]quinolin-1-one], under 5 µM; under `CCc1nc2c(c3c1[nH]c1ccccc13)C(=O)CC(C)(C)C2` [Example 10, 6-ethyl-3,3-dimethyl-2,3,4,7-tetrahydro-indolo[2,3-c]quinolin-1-one], under 5 µM. `Cc1nc2c(c3c1[nH]c1ccc(F)cc13)C(=O)CC(C)(C)C2` [Example 4, 10-fluoro-3,3,6-trimethyl-2,3,4,7-tetrahydroindolo[2,3-c]quinolin-1-one] yielded an IC50 of under 2 µM.

Consider `Cc1nc2c(c3c1[nH]c1cccc(F)c13)C(=O)CC(C)(C)C2` [Example 2, 11-fluoro-3,3,6-trimethyl-2,3,4,7-tetrahydroindolo[2,3-c]quinolin-1-one], for which the IC50 is under 5 µM. Turning to `CC1(C)CC(=O)c2c(ncc3[nH]c4ccccc4c23)C1` [Example 11, 3,3-dimethyl-2,3,4,7-tetrahydroindolo[2,3-c]quinolin-1-one], the IC50 was under 5 µM. The molecule `COc1ccc2[nH]c3cnc4c(c3c2c1)C(=O)CC(C)(C)C4` [Example 14, 10-methoxy-3,3-dimethyl-2,3,4,7-tetrahydroindolo[2,3-c]quinolin-1-one] registered an IC50 of under 10 µM.

On to `Cc1nc2c(c3c1[nH]c1ccccc13)C(=O)CC1(CCCCC1)C2` [Example 12, 6-methyl-3′H-spirocyclohexane-2,3,4,7-tetrahydroindolo[2,3-c]quinolin-1-one], for which the IC50 is under 10 µM. Turning to `CCc1nc2c(c3c1[nH]c1ccc(F)cc13)C(=O)CC(C)(C)C2` [Example 16, 10-fluoro-6-ethyl-3,3,-dimethyl-2,3,4,7-tetrahydroindolo[2,3-c]quinolin-1-one], the IC50 is under 2 µM.

Another assay addresses T1, human DYRK1A. Briefly: Human DYRK1A kinase competitive binding assay (Ambit Biosciences). Set-up: Ambit Biosciences (San Diego, Calif., USA), contract assay provider. The method, then: (I) Human DYRK1A Kinase Binding Assay and Binding Constant Measurements. Human DYRK1A kinase profiles in a competitive binding assay were performed by Ambit Biosciences (San Diego, Calif., USA). Activity was recorded via a competition binding assay of human DYRK1A kinase that was fused to a proprietary tag. Measurements of the amount of DYRK1A kinase bound to an immobilized, active-site directed ligand in the presence and absence of the test compound provided a percentage of DMSO control for binding of ligand. Activities between 1% and 10% were selected for Kd determination. Dendrogram representations were generated by an in-house visualization tool designated as PhyloChem. In certain embodiments, compounds have a low Kd value in the DYRK1A kinase binding assay. […] The human DYRK1A kinase binding assay has been used to test the compounds of the Examples disclosed.
The Kd is the concentration at which binding is half-saturated. Read a low Kd as higher affinity. Take `Cc1nc2c(c3c1[nH]c1ccc(F)cc13)C(=O)CC(C)(C)C2` [Example 4, 10-fluoro-3,3,6-trimethyl-2,3,4,7-tetrahydroindolo[2,3-c]quinolin-1-one]: the Kd was under 1 µM.

As for `Cc1nc2c(c3c1[nH]c1cccc(F)c13)C(=O)CC(C)(C)C2` [Example 2, 11-fluoro-3,3,6-trimethyl-2,3,4,7-tetrahydroindolo[2,3-c]quinolin-1-one], the Kd was under 1 µM. Molecule `COc1ccc2[nH]c3c(C)nc4c(c3c2c1)C(=O)CC(C)(C)C4` [Example 6, 10-methoxy-3,3,6-trimethyl-2,3,4,7-tetrahydroindolo[2,3-c]quinolin-1-one] showed a Kd of under 5 µM.
